Results from patent US8063048B2, “Acetylenyl-pyrazolo-pyrimidine derivatives” (Hoffmann-La Roche Inc., priority 2005, dated 2011).

Columns and labels:
mGlu2 receptor = target: T1, mGlu2 receptor (Rattus norvegicus, UniProt P31421); assay: [3H]-LY354740 binding on mGlu2 transfected CHO cell membranes; settings: inhibition of 10 nM [3H]-LY354740 binding, membranes of CHO cells transfected with rat mGlu2, room temperature, 1 hour
T1 construct: expressed in transfected cells; membranes prepared
Excerpt: [^3H]-LY354740 Binding on mGlu2 Transfected CHO Cell Membranes. Transfection and Cell Culture
cDNA encoding the rat mGlu2 receptor protein in pBluescript II was subcloned into the eukaryotic expression vector pcDNA I-amp from Invitrogen Ltd (Paisley, UK). This vector construct (pcD1mGR^2) was co-transfected with a psvNeo plasmid encoding the gene for neomycin resistance, into CHO cells by a modified calcium phosphate method described by Chen & Okayama (1988). The cells were maintained in Dulbecco's Modified Eagle medium with reduced L-glutamine (2 mM final concentration) and 10% dialyzed fetal calf serum from Gibco-Invitrogen (Carlsbad, Calif., USA). Selection was made in the presence of G-418 (1000 ug/mL final) and MCPG[…]. Clones were identified by reverse transcription of 5 μg total RNA, followed by PCR using mGlu2 receptor specific primers 5′-[…]-3′ and 5′-[…]-3′ in 60 mM Tris HCl (pH 10), 15 mM (NH4)2SO4, 2 mM MgCl2, 25 units/mLTaq Polymerase with 30 cycles annealing at 60° C. for 1 min., extention at 72° C. for 30 s, and 1 min. 95° C. denaturation.
Cells, cultured as above, were harvested and washed three times with cold PBS and frozen at −80° C. The pellet was resuspended in cold 20 mM HEPES-NaOH buffer containing 10 mM EDTA (pH 7.4) and homogenized with a polytron (Kinematica, AG, Littau, Switzerland) for 10 s at 10 000 rpm. After centrifugation for 30 min. at 4° C., the pellet was washed once with the same buffer, and once with cold 20 mM HEPES-NaOH buffer containing 0.1 mM EDTA, (pH 7.4). Protein content was measured using the micro BCA method from Pierce-Perbio (Rockford, Ill., USA) using bovine serum albumin as standard.
After thawing, the membranes were resuspended in cold 50 mM Tris-HCl buffer containing 2 mM MgCl2 (pH 7) (binding buffer). The final concentration of the membranes in the assays was 25 μg protein/ml. Inhibition experiments were performed with membranes incubated with 10 nM [^3H]-LY354740 at room temperature, for 1 hour, in presence of various concentrations of the compound to be tested. Following the incubations, membranes were filtered onto Whatmann GF/B glass fiber filters and washed 5 times with cold binding buffer. Non specific binding was measured in the presence of 10 μM DCG IV. After transfer of the filters into plastic vials containing 10 mL of Ultima-gold scintillation fluid from Perkin-Elmer (Boston, Mass., USA), the radioactivity was measured by liquid scintillation in a Tri-Carb 2500 TR counter (Packard, Zürich, Switzerland).
The inhibition curves were fitted with a four parameter logistic equation giving IC50 values, and Hill coefficients.

T1 sequence (P31421 19-872): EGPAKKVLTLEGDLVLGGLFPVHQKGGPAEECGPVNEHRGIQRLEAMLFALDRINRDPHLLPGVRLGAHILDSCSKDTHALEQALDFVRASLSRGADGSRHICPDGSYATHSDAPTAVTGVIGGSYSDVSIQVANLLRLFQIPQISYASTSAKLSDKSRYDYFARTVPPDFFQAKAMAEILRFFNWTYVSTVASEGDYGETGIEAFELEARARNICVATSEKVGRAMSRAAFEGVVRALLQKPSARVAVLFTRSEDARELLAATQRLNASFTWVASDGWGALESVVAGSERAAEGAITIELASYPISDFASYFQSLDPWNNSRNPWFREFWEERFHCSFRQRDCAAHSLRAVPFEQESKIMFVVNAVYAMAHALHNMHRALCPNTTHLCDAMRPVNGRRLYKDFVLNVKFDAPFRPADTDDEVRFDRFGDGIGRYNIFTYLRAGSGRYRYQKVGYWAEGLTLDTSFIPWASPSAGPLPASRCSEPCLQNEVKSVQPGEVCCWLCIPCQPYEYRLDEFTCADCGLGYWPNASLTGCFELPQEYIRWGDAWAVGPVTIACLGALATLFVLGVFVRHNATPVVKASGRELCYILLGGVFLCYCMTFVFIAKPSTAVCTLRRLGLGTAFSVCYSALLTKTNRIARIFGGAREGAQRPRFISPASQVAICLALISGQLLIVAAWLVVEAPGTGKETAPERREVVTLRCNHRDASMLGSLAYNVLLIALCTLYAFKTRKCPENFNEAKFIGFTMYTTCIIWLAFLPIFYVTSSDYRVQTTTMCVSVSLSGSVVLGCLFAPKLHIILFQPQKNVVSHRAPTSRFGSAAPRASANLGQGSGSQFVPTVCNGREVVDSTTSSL

Molecule `NS(=O)(=O)c1ccc(C#Cc2ncn3c(C(F)(F)F)cc(-c4ccc(C(F)(F)F)cc4)nc23)cc1` [Example 178, 4-[4-Trifluoromethyl-2-(4-trifluoromethyl-phenyl)-imidazo[1,5-a]pyrimidin-8-ylethynyl]-benzenesulfonamide] has a melting point of 290 °C and a Ki (mGlu2 receptor) of 8 nM.

Molecule `NS(=O)(=O)c1cc(C#Cc2cnc3c(C(F)(F)F)cc(-c4ccc(C(F)(F)F)cc4)cn23)c(F)cc1F` [Example 180, 2,4-Difluoro-5-[8-trifluoromethyl-6-(4-trifluoromethyl-phenyl)-imidazo[1,2-a]pyridin-3-ylethynyl]-benzenesulfonamide] has a melting point of 306 to 307 °C and a Ki (mGlu2 receptor) of 9 nM.

With `NS(=O)(=O)c1ccc(C#Cc2ncn3c(C(F)(F)F)cc(-c4ccc(C(F)(F)F)cc4)nc23)s1` [Example 179, 5-[4-Trifluoromethyl-2-(4-trifluoromethyl-phenyl)-imidazo[1,5-a]pyrimidin-8-ylethynyl]-thiophene-2-sulfonic acid amide] the melting point was 255 °C and the Ki (mGlu2 receptor) was 1 nM.

`CC(CO)(CO)NS(=O)(=O)c1cncc(C#Cc2cnn3c(C(F)(F)F)cc(-c4ccc(Cl)c(Cl)c4)nc23)c1` [Example 91, 5-[5-(3,4-Dichloro-phenyl)-7-trifluoromethyl-pyrazolo[1,5-a]pyrimidin-3-ylethynyl]-pyridine-3-sulfonic acid (2-hydroxy-1-hydroxymethyl-1-methyl-ethyl)-amide] showed a Ki (mGlu2 receptor) of 4 nM.

Work on `NS(=O)(=O)c1cccc(C#Cc2cnn3c(C(F)(F)F)cc(-c4ccc(C(F)(F)F)cc4)nc23)c1` [Example 1, 3-[7-Trifluoromethyl-5-(4-trifluoromethyl-phenyl)-pyrazolo[1,5-a]pyrimidin-3-ylethynyl]-benzenesulfonamide] yielded a melting point of 243 °C and a Ki (mGlu2 receptor) of 2 nM.

In the case of `CN1CCN(S(=O)(=O)c2ccc(C#Cc3cnn4c(C(F)(F)F)cc(-c5ccc(C(F)(F)F)cc5)nc34)s2)CC1` [Example 157, 3-[5-(4-Methyl-piperazine-1-sulfonyl)-thiophen-2-ylethynyl]-7-trifluoromethyl-5-(4-trifluoromethyl-phenyl)-pyrazolo[1,5-a]pyrimidine], the melting point is reported as 250 °C and the Ki (mGlu2 receptor) is reported as 8 nM.

Work on `NS(=O)(=O)c1ccc(C#Cc2cnn3c(C4CC4)cc(-c4ccc(Cl)c(Cl)c4)nc23)s1` [Example 86, 5-[7-Cyclopropyl-5-(3,4-dichloro-phenyl)-pyrazolo[1,5-a]pyrimidin-3-ylethynyl]-thiophene-2-sulfonic acid amide] yielded a melting point of 213 to 214 °C and a Ki (mGlu2 receptor) of 3 nM.
